Read-outs that look alike come from different tables or passages of the source.
Key:
adult cat fleas C. felis = test: Flea ovicidal activity in vitro: artificial feeding system with blood drawn from treated dogs (Example 3); details: fed to fleas
Source text: (§1) For the in vitro tests, an artificial feeding system with cages for adult cat fleas C. felis was used as described by Wade, S.E., et al., J. Med. Ent. 25(3): 186-190 (May 1988). Inside each cage were placed 100 one-week-old, unfed adult C. fells. Each cage included a container for treated blood separated from the fleas by a PARAFILM® membrane, and a compartment containing thin strips of paper to support loosely arranged clean dog hair and to provide a foothold for the fleas as they fed on the blood through the membrane.
Fifteen healthy male beagle dogs, one year of age, with weights ranging from 10.29 kg to 13.87 kg, were divided into three groups of five dogs each. One group was fed an initial bolus of 50 mg/kg of (S)-methoprene, followed by daily feeding a standard maintenance diet containing 0.02% (S)-methoprene. The second group was fed an initial bolus of 25 mg/kg of (S)-methoprene, followed by daily feeding a standard maintenance diet containing 0.01% (S)-methoprene. The third group received the same diet but with no (S)-methoprene, thereby serving as a control. The daily feeding of 0.02% (S)-methoprene in the first group amounted to approximately 3.6 mg/kg, while the daily feeding of 0.01% (S)-methoprene in the second group amounted to approximately 1.8 mg/kg. The (S)-methoprene was administered in a gelatin capsule, the control involved administration of a gelatin capsule containing vegetable oil instead of (S)-methoprene, and the standard diet was a Science Diet Canine Maintenance. The daily feeding of the (S)-methoprene continued for six weeks following the initial bolus.
Seven days after the initial bolus and weekly thereafter for five more weeks except week 4, 50 mL of blood was collected from each dog into a syringe preloaded with 3 mL of a 20% (by weight) aqueous sodium citrate solution. The five 50-mL samples from each treatment group were pooled at each bleeding. Aliquots of 10 mL each from each pool were placed in separate feeding chambers of the artificial flea feeding cages.
Flea eggs were collected from each cage at appropriate intervals. One hundred (100) healthy appearing […] were counted under a dissecting microscope from each cage, divided into two subsamples, and placed in 60 mm x 15 mm plastic petri dishes. The samples were incubated at 78°F and 85% relative humidity for three days, then scored for larval hatch by visual observation through the dissecting microscope. The data from all replicates in each treatment group were combined to yield the mean percent egg hatch, and the percent inhibition of egg hatch was calculated relative to the control.

C. felis = test: Systemic ovicidal activity upon oral administration (initial bolus plus daily diet) to host dogs (Example 3); type: in vivo, C. felis (host: dogs); details: eggs collected from the dogs, week 4
Source text: Eleven days before the administration of the first gelatin capsule (i.e., on Day -11), and weekly thereafter through Day 59, each dog was infested with approximately 200 one-to two-week-old, unfed adult C. fells fleas of mixed sex ratio. Each dog was restrained for about one minute while the fleas were released along the dorsum.
Flea eggs were collected on Days -7, 0, 1, 2, 4, 7, and weekly thereafter through Day 63. Prior to egg collection, the cages in which the dogs were housed and the collection trays were rinsed with isopropyl alcohol, and the water was turned off, feed bowls and resting pads were removed from each cage. […] Using a dissecting microscope and a fine tipped artist brush, 100 flea eggs were counted from the sweepings of each dog and separated into four replicates of 25 eggs each. […] Seventy two hours after collection, larvae emergence was determined. Both dead and live larvae were counted to determine the ovicidal effect of the treatment. […]
Three days prior to the week 4 data point, each dog was infested with fleas in the manner described in Example 2. At week 4, flea eggs were collected from the dogs themselves in the manner described in Example 2, and the percent inhibition of egg hatch for the fleas collected in this manner was determined as in Example 2.

adult cat fleas = test: Flea ovicidal activity in vitro: artificial feeding system with treated beef blood (Examples 4 and 6); parameters: species or system C. felis; details: Ctenocephalides felis; for inhibition at 0.05 ppm: 0.05 ppm in beef blood; for inhibition at 0.075 ppm: 0.075 ppm in beef blood; for inhibition at 0.1 ppm: 0.1 ppm in beef blood; for inhibition at 0.25 ppm: 0.25 ppm in beef blood; for inhibition at 0.5 ppm: 0.5 ppm in beef blood
Source text: as §1
The artificial feeding system and cages for adult cat fleas described in Example 3 were used. Beef blood was used for the feeding system, and was prepared by adding 35 mL of a 20% sodium citrate solution per liter of blood to prevent clotting. A stock solution of lufenuron was prepared by adding 50.1 mg of technical lufenuron to 4.951 g of dimethyl sulfoxide (DMSO) to yield a 1.0% solution. A 1,000 ppm solution was then prepared by diluting 1.0 mL of the 1.0% solution in 9.0 mL of DMSO, and a 100 ppm solution was prepared by diluting 1.0 mL of the 1,000 ppm solution in 9.0 mL of DMSO. Dimethyl sulfoxide itself was used as a control. To treat the blood, the various solutions (0.05 mL) were added to the citrated beef blood (100.0 mL) to yield beef blood solutions containing 5.0 ppm, 0.5 ppm, 0.05 ppm, and 0.00 (zero) ppm lufenuron. Each solution was mixed thoroughly, and 10 mL at each concentration were placed in each of five feeders in the artificial feeding system to serve as replicates. Each day fresh blood solutions identical to the originals were placed in the feeders.
Flea eggs were collected from each replicate on days 3, 5 and 7. One hundred (100) healthy appearing […] were counted under a dissecting microscope from each replicate, divided into two subsamples per replicate, and placed in 60 mm x 15 mm plastic petri dishes. The samples were incubated at 78°F and 85% relative humidity for three days, then scored for larval hatch using by visual observation through the dissecting microscope. The data from all replicates at each concentration were combined to yield the mean percent egg hatch, and the percent inhibition of egg hatch was calculated relative to the control.
Retuming to (S)-methoprene, this example presents in vitro flea ovicidal activity using beef blood, for comparison with Example 4. Procedures using beef blood were the same as those indicated in the previous examples.

[1] = average over days, read-out: Percent Inhibition of Flea Egg Hatching, averages
[2] = 72 h, day 3, read-out: Percent Inhibition of Flea Egg Hatching
[3] = 120 h, day 5, read-out: Percent Inhibition of Flea Egg Hatching
[4] = 144 h, day 6, read-out: Percent Inhibition of Flea Egg Hatching
[5] = 240 h, day 10, read-out: Percent Inhibition of Flea Egg Hatching

Structure (SMILES): COC(C)(C)CCC[C@H](C)C/C=C/C(C)=C/C(=O)OC(C)C [(S)-Methoprene, 1-isopropyl (E,E)-11-methoxy-3,7,11-trimethyl dodecadi-2,4-enoate]
- Percent Inhibition of Flea Egg Hatching (adult cat fleas C. felis; pooled blood of dogs given initial bolus 25 mg/kg then daily diet 0.01% (S)-methoprene, week 1): 6%
- Percent Inhibition of Flea Egg Hatching (adult cat fleas C. felis; pooled blood of dogs given initial bolus 25 mg/kg then daily diet 0.01% (S)-methoprene, week 3): 38%
- Percent Inhibition of Flea Egg Hatching (adult cat fleas C. felis; pooled blood of dogs given initial bolus 25 mg/kg then daily diet 0.01% (S)-methoprene, week 5): 24%
- Percent Inhibition of Flea Egg Hatching (adult cat fleas C. felis; pooled blood of dogs given initial bolus 25 mg/kg then daily diet 0.01% (S)-methoprene, week 6): 19%
- Percent Inhibition of Flea Egg Hatching (adult cat fleas C. felis; pooled blood of dogs given initial bolus 50 mg/kg then daily diet 0.02% (S)-methoprene, week 1): 33%
- Percent Inhibition of Flea Egg Hatching (adult cat fleas C. felis; pooled blood of dogs given initial bolus 50 mg/kg then daily diet 0.02% (S)-methoprene, week 3): 48%
- Percent Inhibition of Flea Egg Hatching (adult cat fleas C. felis; pooled blood of dogs given initial bolus 50 mg/kg then daily diet 0.02% (S)-methoprene, week 5): 38%
- Percent Inhibition of Flea Egg Hatching (adult cat fleas C. felis; pooled blood of dogs given initial bolus 50 mg/kg then daily diet 0.02% (S)-methoprene, week 6): 22%
- Percent Inhibition of Flea Egg Hatching (C. felis; initial bolus 25 mg/kg then daily diet 0.01% (S)-methoprene): 100%
- Percent Inhibition of Flea Egg Hatching (C. felis; initial bolus 50 mg/kg then daily diet 0.02% (S)-methoprene): 100%
- inhibition at 0.05 ppm (adult cat fleas; [1]): 56.4%
- inhibition at 0.075 ppm (adult cat fleas; average of a and b, read-out: Percent Inhibition of Flea Egg Hatching, averages): 72%
- inhibition at 0.1 ppm (adult cat fleas; [1]): 96.6%
- inhibition at 0.25 ppm (adult cat fleas; [1]): 99.5%
- inhibition at 0.5 ppm (adult cat fleas; [1]): 99.8%
- inhibition at 0.05 ppm (adult cat fleas; [2]): 47.3%
- inhibition at 0.5 ppm (adult cat fleas; [2]): 99.1%
- inhibition at 0.1 ppm (adult cat fleas; [3]): 97.4%
- inhibition at 0.25 ppm (adult cat fleas; [3]): 100%
- inhibition at 0.1 ppm (adult cat fleas; [4]): 95.7%
- inhibition at 0.25 ppm (adult cat fleas; [4]): 99%
- inhibition at 0.5 ppm (adult cat fleas; 168 h, day 7, read-out: Percent Inhibition of Flea Egg Hatching): 100%
- inhibition at 0.075 ppm (adult cat fleas; 192 h, day 8, entry a, read-out: Percent Inhibition of Flea Egg Hatching): 66%
- inhibition at 0.075 ppm (adult cat fleas; 192 h, day 8, entry b, read-out: Percent Inhibition of Flea Egg Hatching): 78%
- inhibition at 0.05 ppm (adult cat fleas; [5]): 65.4%
- inhibition at 0.5 ppm (adult cat fleas; [5]): 100%
- inhibition at 0.5 ppm (adult cat fleas; 312 h, day 13, read-out: Percent Inhibition of Flea Egg Hatching): 100%

Source: patent EP0923292B1, “IMPROVED METHOD FOR SYSTEMIC ADMINISTRATION OF 2,4-DIENOIC ACID-TYPE INSECTICIDES TO TERRESTRIAL MAMMALS” (priority 1996, dated 1998)
